According to patent US9249086B2, “Carboxylic acid ALA esters” (Photocure ASA, priority 2012, dated 2016):
Structures can show the parent of a compound that is named as a salt. Where two headings read alike, the source gives them in different places. Marks after values point to notes of the source that are not given here.

Columns and labels:
[1] = tested on: Rat bladder cells (AY-27); assay: Cytotoxicity in rat bladder cells (MTT test); type: cell-based; conditions: AY-27 cells; for Cytotoxicity: 2 hours, MTT test; for Levels of cytotoxicity compared to HAL: compound at 1 mM
Protocol: All experiments were performed in 4-5 replicates under subdued light. For concentrations of compounds 1 mM, the cytotoxicity was assessed with MTT test. Exponentially growing cells were incubated with freshly prepared solution or medium as described above for 2 hours in 96-well plates. After the incubation, the solutions or the medium was discarded and the cells were washed twice with PBS. Then 50 μl of MTT (2.5 mg·ml^−1) was added to 150 μl of RPMI serum-free medium per well and incubated for 3 hours. Absorbance was measured by dissolving formazan crystals with 50 μl of DMSO. The absorbance was normalized to that of control cells.

[2] = tested on: Rat bladder cells (AY-27); assay: PpIX measurements in rat bladder cells; type: cell-based; conditions: AY-27 cells, 2 hours incubation
Protocol: Rat bladder cells (AY-27) were grown in the culture medium (RPMI 1640 supplemented with 9% fetal calf serum 1% L-glutamin (200 mM) and 1% penicillin (10 000 UI), streptomycin (10 000 μg·mL^−1). Exponentially growing cells (AY-27) were incubated for 2 hours with freshly prepared solutions of 0.8 mM HAL (which is a tenth of the concentration which is used for bladder cancer […]). Control cells received serum-free medium without any test or reference compounds. After the incubation, the solutions or the medium was discarded and the cells were rinsed 2 times with ice-cooled PBS. PpIX was extracted from cells using an ice-cold lysis extraction mixture, consisting of ethanol/DMSO/acetic acid (80/20/1, v/v/v). The cell lysate was centrifuged (400 g, 10 min, 2° C.), the pellet was grinded and the suspension was sonicated for 15 min before being centrifuged. The fluorescence signal of PpIX was measured with a Perkin-Elmer LS 55 spectrometer (Perkin-Elmer, Beaconsfield, UK) and expressed as a function of the protein content. The fluorescence intensity at 635 nm in each sample was reported on a calibration curve established with PpIX (Sigma-Aldrich, France) diluted in extraction mixture as described above. The PpIX concentration was expressed relative to the protein content. Briefly, a lysis buffer mixture (1 mM EDTA, 1% Triton X-100 and 10 mM Tris-HCl; pH 7.4) was added to frozen cell dishes together with 500 mM PMSF (anti-protease) solution in DMSO. Lysates were kept on ice for 30 minutes and centrifuged at 4° C. for 20 minutes at 15 000 g. The protein content was then measured against a BSA calibration curve by a Biorad DC protein assay kit (Bio-Rad, France) based on a method developed by Lowry.

WiDr cells [3] = assay: In vitro PpIX formation in cancer cells; type: cell-based
Protocol: These untreated cells served as a control.
After treatment with the compounds of the invention and reference compounds as described above, the cells were washed twice with PBS and scraped off the substrate with a Costar cell scraper into a solution of 1M HClO4 in 50% methanol. Cell debris was removed by centrifugation. PpIX was quantitatively extracted from the cells with this procedure. The PpIX content in each sample was determined fluorometrically using a Perkin Elmer LS50B spectrofluorimeter. PpIX was excited at 407 nm, and the emitted fluorescence was measured at 606 nm using a long pass cut-off filter (530 nm) on the emission side. A standard of known PpIX concentration was added to the samples at concentrations increasing the total fluorescence by 50-100%. The PpIX concentration in each sample was calculated relative to the protein content in control cells as measured by a bicinchoninic acid protein assay.

WiDr cells [4] = conditions: MTS assay; for Dark toxicity (cell toxicity in the absence of light): 0.001-1 mM, 4 hours incubation in the dark
Protocol: Stock solutions of the compounds above were prepared by dissolving them in DMSO to a concentration of 100 mM. Concentrations used in the experiments were obtained by diluting the stock solutions with PBS or cell culture medium.
WiDr cells derived from a primary adenocarcinoma of the rectosigmoid colon were subcultured in RPMI 1640 medium (Gibco) containing 10% fetal calf serum, 100 U/ml penicillin, 100 μg/ml streptomycin and 1% glutamine. Cells were split 1:100 twice a week, and maintained at 37° C. and 5% CO2 in a humid environment. For carrying out the experiments, 5×10^5 WiDr cells in 2 ml of the medium described above were added to each well of 6-well plastic tissue-culture plates (Nunc) and left for 48 hr at 37° C. and 5% CO2 in a humid environment for proper attachment to the substrate. The cells were then washed twice with RPMI 1640-medium without serum, followed by the addition to the wells of the appropriate dilutions of the compounds and references above in 2 ml of fresh culture medium to final concentrations of 0.001, 0.003, 0.01, 0.03, 0.1, 0.3 and 1 mM in duplicates. To two wells, only 2 ml of fresh culture medium was added. These untreated cells served as a control. The cells were incubated at 37° C. for four hours in the dark.
Dark toxicity, i.e. cell toxicity in the absence of light, was measured by MTS assay immediately after the above-described 4 hours of incubation with the compounds and references at various concentrations.

[5] = tested on: UV-damaged mouse skin versus healthy mouse skin; assay: In vivo skin fluorescence in healthy nude mice and nude mice with UV-damaged skin; conditions: nude mice
Protocol: An experiment was carried out to assess the potential for compound 6 to show selective accumulation in UV-damaged skin. For the assessment, skin fluorescence after application of the compound was measured in vivo in healthy mouse skin and in UV-damaged mouse skin. A nude mice model with UV-damaged skin (actinic damage) was established as described by K. Togsverd-Bo et al., Exp. Dermatol. 2012, 21, 260-264.
Equimolar amounts of compound 2 (1-(isopropyl carboxy)ethyl 5-amino-4-oxopentanoate hydrochloride prepared according to Example 2) and compound 5 (3-carboxypropyl 5 amino-4-oxopentanoate hydrochloride prepared according to Example 5) were formulated as a cream in Unguentum Merck: compound 2: 16%, 160 mg/g and compound 5: 14%, 140 mg/g, respectively.
One group of healthy nude mice (10 mice, control group) and one group of nude mice with UV-damaged skin (10 mice) were included in the experiment. About 125 μl of cream formulation was applied onto the back of each mouse. Prior to cream application, the dorsal skin of each mouse was tape-stripped five times to enhance penetration of the compound: adhesive film (Scotch tape, 3M) was pressed onto the skin of the application area, the tape strip was removed with one quick movement and a new tape strip was used. The mice were kept in the dark for 3 hours prior to skin fluorescence measurement to avoid photobleaching. Skin fluorescence was assessed as described in Example 17 and the mean amount of skin fluorescence for each group of mice was calculated.
The ratio of skin fluorescence [a.u] in UV-damaged mouse skin to skin fluorescence [a.u.] in healthy mouse skin was determined.

[6] = WiDr cells, 0.001-1 mM, 4 hours incubation, * mean of two, ** mean of 3 experiments

SMILES | Compound concentration for max PpIX formation (WiDr cells [3]) [mM] | Max. PpIX content (WiDr cells [3]) | Dark toxicity (cell toxicity in the absence of light) (WiDr cells [4]) | Max. PpIX content (WiDr cells [3]; [6]) | Compound concentration for max PpIX formation (WiDr cells [3]; WiDr cells, 4 hours incubation) | further results
NCC(=O)CCC(=O)OCCCCC(=O)O [Compound 8, 4-carboxybutyl 5-amino-4-oxopentanoate hydrochloride] |  |  |  |  |  | Cytotoxicity ([1]; 1 mM): 18 % of control; Cytotoxicity ([1]; 5 mM): 26 % of control; Cytotoxicity ([1]; 15 mM): 38 % of control; Levels of cytotoxicity compared to HAL [1]: comparable and acceptable; PpIX Mean ± SD ([2]; 0.3 mM): 243 ± 28 pmoles/mg protein; PpIX Mean ± SD ([2]; 0.5 mM): 219 ± 51 pmoles/mg protein; PpIX Mean ± SD ([2]; 1 mM): 258 ± 62 pmoles/mg protein; PpIX Mean ± SD ([2]; 5 mM): 234 ± 78 pmoles/mg protein; PpIX Mean ± SD ([2]; 15 mM): 213 ± 64 pmoles/mg protein
NCC(=O)CCC(=O)OCCCCCCCCCCCC(=O)O [Compound 14, 11-carboxyundecyl 5-amino-4-oxopentanoate hydrochloride] | 0.1 | 65* ng/mg protein | no cell toxicity was observed |  |  | 
NCC(=O)CCC(=O)OCCCCCC(=O)O [Compound 9, 5-carboxypentyl 5-amino-4-oxopentanoate hydrochloride] | 1 | 40 ng/mg protein | no cell toxicity was observed |  |  | 
Cl.NCC(=O)CCC(=O)OCCCCCCCCCCCCCCCC(=O)O [Compound 15, 15-carboxypentadecyl 5-amino-4-oxopentanoate hydrochloride] | 0.1 |  |  | 25 ng/mg protein |  | Concentrations at which compound was toxic (dark toxicity) (WiDr cells [4]; 4 hours in the dark): above 0.1 mM
NCC(=O)CCC(=O)OCCCC(=O)O [Compound 5, 3-carboxypropyl 5-amino-4-oxopentanoate hydrochloride] |  |  | no cell toxicity was observed | 30 ng/mg protein | 1 mM | Cytotoxicity ([1]; 1 mM): 17 % of control; Cytotoxicity ([1]; 5 mM): 30 % of control; Cytotoxicity ([1]; 15 mM): 37 % of control; Levels of cytotoxicity compared to HAL [1]: comparable and acceptable; PpIX Mean ± SD ([2]; 0.3 mM): 221 ± 32 pmoles/mg protein; PpIX Mean ± SD ([2]; 0.5 mM): 224 ± 35 pmoles/mg protein; PpIX Mean ± SD ([2]; 1 mM): 261 ± 52 pmoles/mg protein; PpIX Mean ± SD ([2]; 5 mM): 250 ± 83 pmoles/mg protein; PpIX Mean ± SD ([2]; 15 mM): 216 ± 11 pmoles/mg protein; Ratio of skin fluorescence in UV-damaged mouse skin to skin fluorescence in healthy mouse skin ([5]; equimolar creams (16% / 14%), about 125 μl, tape-stripped skin, 3 hours in the dark, 10 mice per group): 2.72; Selectivity for UV-damaged skin ([5]; equimolar creams, 3 hours): pronounced selectivity for UV-damaged skin
NCC(=O)CCC(=O)OCCCCCCCCCC(=O)O [Compound 12, 9-carboxynonyl 5-amino-4-oxopentanoate hydrochloride] |  |  | no cell toxicity was observed | 90* ng/mg protein | 0.05 mM | 
Cl.NCC(=O)CCC(=O)O [ALA, 5-ALA hydrochloride, reference compound] |  |  | no cell toxicity was observed | 80* ng/mg protein | ≧1 mM | 
CCCCCCOC(=O)CCC(=O)CN.Cl [HAL, 5-ALA hexyl ester hydrochloride, reference compound] |  |  | weak cell toxicity | 94** ng/mg protein | 0.1 mM | Cytotoxicity ([1]; 0.8 mM): 15 % of control; Minimum cell survival rate (WiDr cells [4]; range of 0.3 to 1 mM, 4 hours in the dark): 85%
NCC(=O)CCC(=O)OCCCCCCCC(=O)O [Compound 10, 7-carboxyheptyl 5-amino-4-oxopentanoate hydrochloride] | 1 | 55* ng/mg protein | no cell toxicity was observed |  |  | 
